The text below walks through data of patent US20200071310A1, “N-ARYL PYRAZOLES AS NRF2 REGULATORS” (GLAXOSMITHKLINE INTELLECTUAL PROPERTY DEVELOPMENT LIMITED, priority 2016, published 2020).

Assay [1] relates to NQO1 specific enzyme activity in BEAS-2B cells. In words: BEAS-2B NQO1 MTT Assay. In kind it is cell-based. Particulars: Homo sapiens. The text has this:
NAD(P)H:quinone oxidoreductase 1 (NQO1), also called DT diaphorase, is a homodimeric FAD-containing enzyme that catalyzes obligatory NAD(P)H-dependent two-electron reductions of quinones and protects cells against the toxic and neoplastic effects of free radicals and reactive oxygen species arising from one-electron reductions. The transcription of NQO1 is finely regulated by NRF2, and thus NQO1 activity is a good marker for NRF2 activation. On day one, frozen BEAS-2B cells (ATCC) were thawed in a water bath, counted, and re-suspended at a concentration of 250,000 cells/mL. Fifty microliters of cells were plated in 384 well black clear-bottomed plates. Plates were incubated at 37° C., 5% CO2 overnight. On day two, plates were centrifuged and 50 nL of compound or controls were added to the cells. Plates were then incubated at 37° C., 5% CO2 for 48 hours. On day four, medium was aspirated from the plate and crude cell lysates were made by adding 13 uL of 1× Cell Signaling Technologies lysis buffer with 1 Complete, Mini, EDTA-free Protease Inhibitor Tablet (Roche) for each 10 mL of lysis buffer. After lysis plates were incubated for 20 minutes at room temperature. Two microliters of lysate were removed for use in Cell Titer Glo assay (Promega) and MTT cocktail was prepared (Prochaska et. al. 1998) for measurement of NQO1 activity. Fifty microliters of MTT cocktail is added to each well, plate is centrifuged, and analyzed on an Envision plate reader (Perkin Elmer) using Absorbance 570 nm label for 30 minutes. Product formation was measured kinetically and the pEC50 of NQO1 specific activity induction was calculated by plotting the change in absorbance (Delta OD/min) versus the log of compound concentration followed by 3-parameter fitting. pEC50 is the negative log of the EC50.

In assay [2] the target is T1, Keap1 (321-609) Kelch domain / TAMRA-labeled NRF2 peptide (ETGE motif) (Homo sapiens, UniProt Q14145).
T1 construct: the Kelch domain (321-609) of Keap1 is used
T1 sequence (Q14145 321-609): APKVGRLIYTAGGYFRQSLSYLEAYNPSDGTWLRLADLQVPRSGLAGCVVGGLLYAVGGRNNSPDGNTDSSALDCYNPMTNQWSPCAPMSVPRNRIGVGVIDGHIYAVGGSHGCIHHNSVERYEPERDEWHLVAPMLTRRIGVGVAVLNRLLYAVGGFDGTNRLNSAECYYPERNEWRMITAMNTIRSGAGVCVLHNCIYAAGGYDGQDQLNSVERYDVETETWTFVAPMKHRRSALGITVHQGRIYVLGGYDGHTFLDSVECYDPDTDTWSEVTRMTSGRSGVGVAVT
Put plainly: NRF2-Keap1 FP Assay. The format is binding. Particulars: Keap1 (321-609) 20 nM, Tamra labeled peptide 8 nM. The text has this: One model for the NRF2-Keap1 interaction is through two binding sites in the Neh2 domain on NRF2. The two sites are referred to as the DLG binding motif (latch domain, uM affinity) and the ETGE binding motif (hinge domain, nM affinity). The Keap1 protein consists of an N-terminal region (NTR), a broad complex, tramtrack, and brick a' brac domain (BTB), an intervening region (IVR), a double glycine repeat domain (DGR or Kelch), and a C-terminal region. The DLG and ETGE motifs of NRF2's Neh2 domain bind to the Kelch domain of Keap1 at different affinities. In the Keap1 Kelch fluorescence polarization (FP) assay, a TAMRA-labeled 16mer peptide (AFFAQLQLDEETGEFL) containing the ETGE motif of NRF2 and the Kelch domain (321-609) of Keap1 is used. The assay determines if a compound interferes with the binding between Keap1 […] and the TAMRA-labeled peptide. Binding of TAMRA-labeled NRF2 peptide to Keap1 (321-609) results in a high FP signal. If a compound interferes with the binding between the peptide and the protein, it will cause the assay signal to decrease. Thus, assay signal is inversely proportional to binding inhibition.
100 nl of 100× compound dose response curves (serial 3-fold dilutions) in DMSO were stamped using an Echo liquid handling system (Labcyte) into 384-well low volume black assay plates (Greiner, #784076), with DMSO in columns 6 and 18. The top concentration of compound was located in columns 1 and 13. Keap1 (321-609) was diluted to 40 nM (2×) in 1× assay buffer (50 mM Tris, pH 8.0, 100 mM NaCl, 5 mM MgCl2, 1 mM DTT, 2 mM CHAPS, and 0.005% BSA) and 5 ul was added using a Multidrop Combi (Thermo Electron Corporation) equipped with a metal tip dispenser to all wells of the compound plate, except column 18. Column 18 received only 5 ul of assay buffer. Immediately, 5 uL of 16 nM (2×) of Tamra labeled peptide (AFFAQLQLDEETGEFL, 21st Century Biochemicals) was added to all wells of the plate. The plates were spun at 500 rpm for 1 min, incubated for 1 hr at room temperature, and read on an Analyst GT (Molecular Devices) equipped with excitation (530/25 nm) and emission (580/10 nm) filters designed for Tamra probes. A 561 nm dichroic mirror was also used in the Analyst. The final assay concentrations of Keap1l (321-609) and Tamra labeled peptide were 20 nM and 8 nM, respectively. Fluorescence measurements, represented as mP, were used in the transformation of the data. Compound activity was calculated based on percent inhibition, normalized against controls in the assay (Control 1 contains the Tamra peptide and Keap1 (321-609) together (0% response) and control 2 contains the Tamra peptide alone (100% response)). Data analysis was handled using the software package Abase XE (Surrey, United Kingdom. The % inhibition values were calculated by the equation:
100−(100*((compound response−average control 2)/(average control 1−average control2))).
For calculation of pIC50s, Abase XE used a four parameter equation.
IC50s<1 nM (+++++), IC50s 1 nM-10 nM (++++), IC50s 10-100 nM (+++), IC50s 100 nM-1 μM (++), IC50s 1-10 μM (+), IC50s>10 μM (−), or were not determined (ND).

[3] abbreviates: NQO1 specific activity induction, BEAS-2B cells, 48 hours, read-out: EC50.

Read-outs that look alike come from different tables or passages of the source.

As for `CC[C@@H]1CN(Cc2cccc(-n3ncc(C(=O)O)c3[C@@H]3C[C@H]3c3cn(C)nn3)c2)S(=O)(=O)c2ccccc2O1` [Example 3], the EC50 (in general, the concentration giving half of the maximal effect) in assay [1] (setting [3]) was 100 to 1000 nM; in assay [2], 1 to 10 nM.
Take `CN(Cc1cccc(-n2ncc(C(=O)O)c2[C@@H]2C[C@H]2c2cn(C)nn2)c1)S(=O)(=O)c1ccccc1` (racemic) [Example 48, 5-((trans)-2-(1-methyl-1H-1,2,3-triazol-4-yl)cyclopropyl)-1-(3-((N-methylphenylsulfonamido)methyl)phenyl)-1H-pyrazole-4-carboxylic acid]: the EC50 in assay [1] (setting [3]) lay within 1000 to 10000 nM; in assay [2], 100 to 1000 nM.
In the same order, the values of `CC[C@@H]1Cc2ccccc2CN(Cc2cccc(-n3ncc(C(=O)O)c3[C@@H]3C[C@H]3c3cn(C)nn3)c2)C1` [Example 10] are 1000 to 10000 nM and 10 to 100 nM.
Taken in the same sequence, the figures for `CCCCCCN(Cc1cccc(-n2ncc(C(=O)O)c2[C@@H]2C[C@H]2c2cn(C)nn2)c1)S(=O)(=O)c1ccccc1C` (racemic) [Example 37, 1-(3-((N-hexyl-2-methylphenylsulfonamido)methyl)phenyl)-5-((trans)-2-(1-methyl-1H-1,2,3-triazol-4-yl)cyclo-propyl)-1H-pyrazole-4-carboxylic acid] were 10 to 100 nM and 10 to 100 nM.
In the same order, the values of `COc1ccc(Br)cc1S(=O)(=O)N(C)Cc1cccc(-n2ncc(C(=O)O)c2[C@@H]2C[C@H]2c2cn(C)nn2)c1` (racemic) [Example 43, 1-(3-((5-bromo-2-methoxy-N-methylphenylsulfonamido)methyl)phenyl)-5-((trans)-2-(1-methyl-1H-1,2,3-triazol-4-yl)cyclopropyl)-1H-pyrazole-4-carboxylic acid] are 1000 to 10000 nM and 100 to 1000 nM.
For the molecule `COc1ccccc1S(=O)(=O)N(C)Cc1cccc(-n2ncc(C(=O)O)c2[C@@H]2C[C@H]2c2cn(C)nn2)c1` (racemic) [Example 47, 1-(3-((2-methoxy-N-methylphenylsulfonamido)methyl)phenyl)-5-((trans)-2-(1-methyl-1H-1,2,3-triazol-4-yl)cyclopropyl)-1H-pyrazole-4-carboxylic acid], the EC50 in assay [1] (setting [3]) is 10 to 100 nM; in assay [2] it was 100 to 1000 nM.
Taken in the same sequence, the figures for `Cn1cc([C@@H]2C[C@H]2c2c(C(=O)O)cnn2-c2cccc(Cn3ccnc3CN3CCCCC3)c2)nn1` (racemic) [Example 24] were 1000 to 10000 nM and 10 to 100 nM.
As to `CC[C@@H]1CN(Cc2cccc(-n3ncc(C(=O)O)c3[C@@H]3C[C@H]3c3cn(CC(F)(F)F)nn3)c2)S(=O)(=O)c2ccccc2O1` [Example 29], the EC50 in assay [1] (setting [3]) was 100 to 1000 nM; in assay [2], 1 to 10 nM.
As to `CN(Cc1cccc(-n2ncc(C(=O)O)c2[C@@H]2C[C@H]2c2cn(C)nn2)c1)S(=O)(=O)c1ccc(-c2ccccc2)cc1` (relative stereo) [Example 39, 5-((trans)-2-(1-methyl-1H-1,2,3-triazol-4-yl)cyclo-propyl)-1-(3-((N-methyl-[1,1′-biphenyl]-4-ylsulfonamido)-methyl)phenyl)-1H-pyrazole-4-carboxylic acid], the EC50 in assay [1] (setting [3]) fell in the range of 1000 to 10000 nM; in assay [2] it was 10 to 100 nM.
For the molecule `CCC1c2ccccc2OC(C)(C)CN1Cc1cccc(-n2ncc(C(=O)O)c2[C@@H]2C[C@H]2c2cn(C)nn2)c1` (stereo partly drawn) [Example 12], the EC50 in assay [1] (setting [3]) and in assay [2] was 1000 to 10000 nM in each case.
`Cc1cc([C@@H]2C[C@H]2c2c(C(=O)O)cnn2-c2cccc(CN3C[C@@H](C)Cc4cc(C(F)(F)F)ccc4S3(=O)=O)c2)on1` (racemic) [Example 57, 1-(3-(((S)-4-Methyl-1,1-dioxido-7-(trifluoromethyl)-4,5-dihydrobenzo[f][1,2]thiazepin-2(3H)-yl)methyl)phenyl)-5-(trans-2-(3-methylisoxazol-5-yl)cyclopropyl)-1H-pyrazole-4-carboxylic acid]: the EC50 in assay [1] (setting [3]) and in assay [2] was 100 to 1000 nM each time.
Turning to `CC[C@@H]1CN(Cc2cccc(-n3ncc(C(=O)O)c3[C@@H]3C[C@H]3c3cn(C)nn3)c2)Cc2ccccc2O1` (racemic) [Example 14], the EC50 in assay [1] (BEAS-2B, 48 h) was in the range of 1000 to 10000 nM; in assay [2], 100 to 1000 nM.
Turning to `CC[C@H]1Cc2ccccc2CN(Cc2cccc(-n3ncc(C(=O)O)c3[C@@H]3C[C@H]3c3cn(C)nn3)c2)C1` [Example 11], the figures for the EC50 in assay [1] (setting [3]) and in assay [2] were 1000 to 10000 nM and 10 to 100 nM, respectively.
In the same order, the values of `CN(Cc1cccc(-n2ncc(C(=O)O)c2[C@@H]2C[C@H]2c2cn(C)nn2)c1)S(=O)(=O)c1ccccc1Oc1ccccc1` (relative stereo) [Example 38, 5-((trans)-2-(1-methyl-1H-1,2,3-triazol-4-yl)cyclo-propyl)-1-(3-((N-methyl-2-phenoxyphenyl-sulfonamido)-methyl)phenyl)-1H-pyrazole-4-carboxylic acid] are 1000 to 10000 nM and 10 to 100 nM.
On to `CCCCCCN(Cc1cccc(-n2ncc(C(=O)O)c2[C@@H]2C[C@H]2c2cn(C)nn2)c1)S(=O)(=O)c1cccc(-c2ccccc2)c1` (racemic) [Example 34, 1-(3-((N-hexyl-[1,1′-biphenyl]-3-ylsulfonamido)methyl)phenyl)-5-((trans)-2-(1-methyl-1H-1,2,3-triazol-4-yl)cyclopropyl)-1H-pyrazole-4-carboxylic acid], for which the EC50 is 10 to 100 nM in assay [1] (setting [3]) and 1 to 10 nM in assay [2].
Turning to `CC[C@H]1Cc2ccccc2S(=O)(=O)N(Cc2cccc(-n3ncc(C(=O)O)c3[C@@H]3C[C@H]3c3cn(C)nn3)c2)C1` [Example 4], the EC50 in assay [1] (setting [3]) lay in the range of 100 to 1000 nM; in assay [2], 1 to 10 nM.
Take `CN(Cc1cccc(-n2ncc(C(=O)O)c2[C@@H]2C[C@H]2c2cn(C)nn2)c1)S(=O)(=O)c1ccccc1OC(F)(F)F` (racemic) [Example 46, 5-((trans)-2-(1-methyl-1H-1,2,3-triazol-4-yl)cyclopropyl)-1-(3-((N-methyl-2-(trifluoromethoxy)phenylsulfonamido)methyl)phenyl)-1H-pyrazole-4-carboxylic acid]: the figures for the EC50 in assay [1] (setting [3]) and in assay [2] were 1000 to 10000 nM and 100 to 1000 nM, respectively.
In the same order, the values of `C[C@H]1Cc2ccccc2S(=O)(=O)N(Cc2cccc(-n3ncc(C(=O)O)c3[C@@H]3C[C@H]3c3cnn(C)c3)c2)C1` [Example 32, 1-(3-(((S)-4-methyl-1,1-dioxido-4,5-dihydrobenzo[f][1,2]thiazepin-2(3H)-yl)methyl)-phenyl)-5-(trans-2-(1-methyl-1H-pyrazol-4-yl)cyclopropyl)-1H-pyrazole-4-carboxylic acid] are 1000 to 10000 nM and 100 to 1000 nM.
